According to PubChem BioAssay AID1963975 (Molecular Pharmacology Branch, DTP, NCI, 2024):
pIC50: −log10 of the molar value.

Test system: 624824-186-R-J2-PDC multicell spheroids, viability
Assay: Anticancer human tumor 624824-186-R-J2-PDC patient-derived colon adenocarcinoma cell line growth inhibition [PI3K]
Conditions: for pIC50: curve of first compound; for viability, T/C: stronger effect = lower value; active = viability on the fitted dose curve at most 10% of control; inactive = the rest
How it was run: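 Spheroid viability read-out. Co-cultures contained the tumor line plus HUVEC and human MSCs. Each agent was paired with a PI3K inhibitor (inavolisib, alpelisib, duvelisib, copanlisib) across half-log dilutions starting at clinical Cmax, or at 10 microM when Cmax was unknown.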
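Also: spheroids exposed to agents for 7 days before viability read.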
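For viability, T/C in this document: 100% = DMSO vehicle treated spheroids.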

CNC(=O)c1ccc(N2C(=S)N(c3ccc(C#N)c(C(F)(F)F)c3)C(=O)C2(C)C)cc1F + Cc1nc(NC(=O)N2CCCC2C(N)=O)sc1-c1ccnc(C(C)(C)C(F)(F)F)c1
inactive: viability, T/C (second compound 0.0316 µM, first compound 0.0316 µM) 87.5% | viability, T/C (second compound 0.0316 µM, first compound 0.1 µM) 108% | viability, T/C (second compound 0.0316 µM, first compound 0.316 µM) 102% | viability, T/C (second compound 0.0316 µM, first compound 1 µM) 108% | viability, T/C (second compound 0.0316 µM, first compound 3.16 µM) 94.1% | viability, T/C (second compound 0.0316 µM, first compound 10 µM) 121% | viability, T/C (second compound 0.1 µM, first compound 0.0316 µM) 85.6% | viability, T/C (second compound 0.1 µM, first compound 0.1 µM) 87.5% | viability, T/C (second compound 0.1 µM, first compound 0.316 µM) 78.3% | viability, T/C (second compound 0.1 µM, first compound 1 µM) 90.6% | viability, T/C (second compound 0.1 µM, first compound 3.16 µM) 90.4% | viability, T/C (second compound 0.1 µM, first compound 10 µM) 114% | viability, T/C (second compound 0.316 µM, first compound 0.0316 µM) 76.1% | viability, T/C (second compound 0.316 µM, first compound 0.1 µM) 86.1% | viability, T/C (second compound 0.316 µM, first compound 0.316 µM) 97.8% | viability, T/C (second compound 0.316 µM, first compound 1 µM) 94.4% | viability, T/C (second compound 0.316 µM, first compound 3.16 µM) 81.9% | viability, T/C (second compound 0.316 µM, first compound 10 µM) 96.2% | viability, T/C (second compound 1 µM, first compound 0.0316 µM) 79.1% | viability, T/C (second compound 1 µM, first compound 0.1 µM) 78.9% | viability, T/C (second compound 1 µM, first compound 0.316 µM) 99% | viability, T/C (second compound 1 µM, first compound 1 µM) 96.7% | viability, T/C (second compound 1 µM, first compound 3.16 µM) 113% | viability, T/C (second compound 1 µM, first compound 10 µM) 90.9% | viability, T/C (second compound 3.16 µM, first compound 0.0316 µM) 81.3% | viability, T/C (second compound 3.16 µM, first compound 0.1 µM) 92.2% | viability, T/C (second compound 3.16 µM, first compound 0.316 µM) 89.1% | viability, T/C (second compound 3.16 µM, first compound 1 µM) 84.7% | viability, T/C (second compound 3.16 µM, first compound 3.16 µM) 101% | viability, T/C (second compound 3.16 µM, first compound 10 µM) 86.4% | viability, T/C (second compound 10 µM, first compound 0.0316 µM) 81.5% | viability, T/C (second compound 10 µM, first compound 0.1 µM) 74.8% | viability, T/C (second compound 10 µM, first compound 0.316 µM) 73% | viability, T/C (second compound 10 µM, first compound 1 µM) 73.9% | viability, T/C (second compound 10 µM, first compound 3.16 µM) 79.1% | viability, T/C (second compound 10 µM, first compound 10 µM) 65%
< 5.00: pIC50 (second compound 0.0316 µM) | pIC50 (second compound 0.1 µM) | pIC50 (second compound 0.316 µM) | pIC50 (second compound 1 µM) | pIC50 (second compound 3.16 µM) | pIC50 (second compound 10 µM)

Cn1cnc2c(F)c(Nc3ccc(Br)cc3Cl)c(C(=O)NOCCO)cc21 + Cc1nc(NC(=O)N2CCCC2C(N)=O)sc1-c1ccnc(C(C)(C)C(F)(F)F)c1
active: viability, T/C (second compound 10 µM, first compound 3 µM) 1.93%
< 5.52: pIC50 (second compound 0.0316 µM) | pIC50 (second compound 0.1 µM) | pIC50 (second compound 0.316 µM) | pIC50 (second compound 1 µM)
7.08: pIC50 (second compound 10 µM)
inactive: viability, T/C (second compound 0.0316 µM, first compound 0.00949 µM) 90.2% | viability, T/C (second compound 0.0316 µM, first compound 0.03 µM) 68.3% | viability, T/C (second compound 0.0316 µM, first compound 0.0949 µM) 78% | viability, T/C (second compound 0.0316 µM, first compound 0.3 µM) 91.2% | viability, T/C (second compound 0.0316 µM, first compound 0.949 µM) 89.4% | viability, T/C (second compound 0.0316 µM, first compound 3 µM) 76.4% | viability, T/C (second compound 0.1 µM, first compound 0.00949 µM) 82.8% | viability, T/C (second compound 0.1 µM, first compound 0.03 µM) 79.7% | viability, T/C (second compound 0.1 µM, first compound 0.0949 µM) 72.9% | viability, T/C (second compound 0.1 µM, first compound 0.3 µM) 78.5% | viability, T/C (second compound 0.1 µM, first compound 0.949 µM) 83.1% | viability, T/C (second compound 0.1 µM, first compound 3 µM) 77.4% | viability, T/C (second compound 0.316 µM, first compound 0.00949 µM) 86.7% | viability, T/C (second compound 0.316 µM, first compound 0.03 µM) 71.8% | viability, T/C (second compound 0.316 µM, first compound 0.0949 µM) 74.3% | viability, T/C (second compound 0.316 µM, first compound 0.3 µM) 70.5% | viability, T/C (second compound 0.316 µM, first compound 0.949 µM) 77.7% | viability, T/C (second compound 0.316 µM, first compound 3 µM) 66.7% | viability, T/C (second compound 1 µM, first compound 0.00949 µM) 90.3% | viability, T/C (second compound 1 µM, first compound 0.03 µM) 61.8% | viability, T/C (second compound 1 µM, first compound 0.0949 µM) 66.6% | viability, T/C (second compound 1 µM, first compound 0.3 µM) 62.7% | viability, T/C (second compound 1 µM, first compound 0.949 µM) 77.5% | viability, T/C (second compound 1 µM, first compound 3 µM) 51.5% | viability, T/C (second compound 3.16 µM, first compound 0.00949 µM) 82.2% | viability, T/C (second compound 3.16 µM, first compound 0.03 µM) 73.8% | viability, T/C (second compound 3.16 µM, first compound 0.0949 µM) 79.6% | viability, T/C (second compound 3.16 µM, first compound 0.3 µM) 63.8% | viability, T/C (second compound 3.16 µM, first compound 0.949 µM) 44.6% | viability, T/C (second compound 3.16 µM, first compound 3 µM) 22.2% | viability, T/C (second compound 10 µM, first compound 0.00949 µM) 63% | viability, T/C (second compound 10 µM, first compound 0.03 µM) 58.4% | viability, T/C (second compound 10 µM, first compound 0.0949 µM) 43.1% | viability, T/C (second compound 10 µM, first compound 0.3 µM) 44.5% | viability, T/C (second compound 10 µM, first compound 0.949 µM) 17.7%
6.16: pIC50 (second compound 3.16 µM)
